In ChEMBL document CHEMBL5653615 (J Biol Chem, 2013):
The source made the active and inactive calls. The calls are words filed in the database; no cut-off is given here.

Tests used:
[1] = molecular target: Receptor-interacting serine/threonine-protein kinase 2 (Homo sapiens) (UniProt O43353); test: Inhibition of human RIPK2 at 500 nM by HotSpot assay relative to control
[2] = molecular target: Tyrosine-protein kinase Yes (Homo sapiens) (UniProt P07947); test: Inhibition of human YES1 at 500 nM by HotSpot assay relative to control
Tyrosine-protein kinase Yes (Homo sapiens), sequence (P07947 2-543 limits assumed): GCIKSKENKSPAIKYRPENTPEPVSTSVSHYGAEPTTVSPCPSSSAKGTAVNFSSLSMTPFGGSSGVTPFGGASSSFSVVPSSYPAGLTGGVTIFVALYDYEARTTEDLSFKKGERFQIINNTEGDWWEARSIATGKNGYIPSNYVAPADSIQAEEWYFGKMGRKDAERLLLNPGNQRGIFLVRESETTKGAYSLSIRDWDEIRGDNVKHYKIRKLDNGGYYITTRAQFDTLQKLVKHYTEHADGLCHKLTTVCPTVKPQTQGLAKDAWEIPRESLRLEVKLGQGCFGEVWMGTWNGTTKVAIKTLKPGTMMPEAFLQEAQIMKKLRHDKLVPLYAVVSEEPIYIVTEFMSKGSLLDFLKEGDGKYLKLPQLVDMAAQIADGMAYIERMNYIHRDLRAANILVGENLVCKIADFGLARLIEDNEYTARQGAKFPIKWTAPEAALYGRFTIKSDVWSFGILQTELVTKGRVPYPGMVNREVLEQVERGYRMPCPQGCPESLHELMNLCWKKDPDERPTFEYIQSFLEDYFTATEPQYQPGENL

[3] = molecular target: Cyclin-dependent kinase 7/ cyclin H (Homo sapiens) (UniProt P51946+P50613); test: Inhibition of human CDK7/cyclin H at 500 nM by HotSpot assay relative to control; type: protein-complex assay
[4] = molecular target: Cyclin-dependent kinase 5/CDK5 activator 1 (Homo sapiens) (UniProt Q00535+Q15078); test: Inhibition of human CDK5/p35 at 500 nM by HotSpot assay relative to control; type: protein-complex assay
[5] = molecular target: Insulin receptor (Homo sapiens) (UniProt P06213); test: Inhibition of wild-type human Insulin receptor activation transfected in insulin-stimulated CHO-K1 cells; type: cell-based
Insulin receptor (Homo sapiens), sequence (P06213 28-758 limits assumed): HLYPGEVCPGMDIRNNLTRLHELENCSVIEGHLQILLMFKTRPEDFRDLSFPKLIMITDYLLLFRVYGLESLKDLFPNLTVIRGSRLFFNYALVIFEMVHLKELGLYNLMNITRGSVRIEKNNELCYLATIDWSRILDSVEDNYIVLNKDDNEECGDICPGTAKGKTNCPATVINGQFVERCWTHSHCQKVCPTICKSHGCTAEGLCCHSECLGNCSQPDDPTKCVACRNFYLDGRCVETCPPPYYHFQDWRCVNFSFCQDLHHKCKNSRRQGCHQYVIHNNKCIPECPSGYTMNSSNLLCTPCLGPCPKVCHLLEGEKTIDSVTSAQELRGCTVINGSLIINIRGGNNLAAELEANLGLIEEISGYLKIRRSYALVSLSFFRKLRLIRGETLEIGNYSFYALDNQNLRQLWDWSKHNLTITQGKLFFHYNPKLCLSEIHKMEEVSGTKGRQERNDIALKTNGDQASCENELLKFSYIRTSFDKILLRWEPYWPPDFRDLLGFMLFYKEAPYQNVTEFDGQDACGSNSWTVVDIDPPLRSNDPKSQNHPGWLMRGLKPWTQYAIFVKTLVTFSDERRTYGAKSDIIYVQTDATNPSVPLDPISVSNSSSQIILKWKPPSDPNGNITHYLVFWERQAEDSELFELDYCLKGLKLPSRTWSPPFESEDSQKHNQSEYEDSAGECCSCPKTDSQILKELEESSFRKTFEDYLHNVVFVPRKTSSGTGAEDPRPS
Insulin receptor (Homo sapiens), sequence (P06213 763-1382 limits assumed): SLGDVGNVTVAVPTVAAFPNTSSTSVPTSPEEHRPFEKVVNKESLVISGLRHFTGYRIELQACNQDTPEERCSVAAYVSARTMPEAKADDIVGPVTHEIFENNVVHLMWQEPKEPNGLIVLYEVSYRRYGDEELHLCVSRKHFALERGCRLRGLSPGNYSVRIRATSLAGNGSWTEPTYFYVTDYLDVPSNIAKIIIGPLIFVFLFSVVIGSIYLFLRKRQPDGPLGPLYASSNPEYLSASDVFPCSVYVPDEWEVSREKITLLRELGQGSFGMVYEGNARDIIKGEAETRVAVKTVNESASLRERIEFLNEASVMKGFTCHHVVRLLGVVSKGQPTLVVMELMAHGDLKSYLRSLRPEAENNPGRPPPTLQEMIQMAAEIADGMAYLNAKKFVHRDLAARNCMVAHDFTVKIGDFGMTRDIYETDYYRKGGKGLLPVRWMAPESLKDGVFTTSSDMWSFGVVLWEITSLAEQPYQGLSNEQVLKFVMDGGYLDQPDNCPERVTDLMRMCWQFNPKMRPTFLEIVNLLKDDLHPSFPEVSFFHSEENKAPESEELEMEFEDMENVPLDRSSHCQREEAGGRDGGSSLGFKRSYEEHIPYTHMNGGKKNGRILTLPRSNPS

[6] = molecular target: Insulin receptor (Homo sapiens) (UniProt P06213); test: Inhibition of human IR at 500 nM by HotSpot assay relative to control
[7] = molecular target: Serine/threonine-protein kinase N2 (Homo sapiens) (UniProt Q16513); test: Inhibition of human PRK2 at 500 nM by HotSpot assay relative to control
[8] = molecular target: Proto-oncogene tyrosine-protein kinase Src (Homo sapiens) (UniProt P12931); test: Inhibition of human c-Src at 500 nM by HotSpot assay relative to control
Proto-oncogene tyrosine-protein kinase Src (Homo sapiens), sequence (P12931 2-536 limits assumed): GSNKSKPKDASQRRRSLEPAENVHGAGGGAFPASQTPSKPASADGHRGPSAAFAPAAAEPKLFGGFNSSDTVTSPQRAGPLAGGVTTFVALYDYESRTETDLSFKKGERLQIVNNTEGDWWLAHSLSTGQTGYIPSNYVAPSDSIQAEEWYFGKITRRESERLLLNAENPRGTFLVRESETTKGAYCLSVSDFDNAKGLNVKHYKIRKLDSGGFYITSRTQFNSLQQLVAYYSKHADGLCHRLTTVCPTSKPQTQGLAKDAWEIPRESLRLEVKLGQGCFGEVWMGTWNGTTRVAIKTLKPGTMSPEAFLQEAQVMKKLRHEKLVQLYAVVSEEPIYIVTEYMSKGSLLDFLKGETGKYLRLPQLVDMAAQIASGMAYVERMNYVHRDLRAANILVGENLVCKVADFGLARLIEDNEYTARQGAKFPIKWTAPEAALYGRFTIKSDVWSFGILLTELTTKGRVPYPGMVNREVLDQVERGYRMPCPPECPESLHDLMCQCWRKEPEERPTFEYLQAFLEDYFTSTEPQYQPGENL

[9] = molecular target: T1, Serine/threonine-protein kinase BRSK2 (Homo sapiens) (UniProt Q8IWQ3); test: Inhibition of human BRSK2 at 500 nM by HotSpot assay relative to control
T1 sequence (whole entry): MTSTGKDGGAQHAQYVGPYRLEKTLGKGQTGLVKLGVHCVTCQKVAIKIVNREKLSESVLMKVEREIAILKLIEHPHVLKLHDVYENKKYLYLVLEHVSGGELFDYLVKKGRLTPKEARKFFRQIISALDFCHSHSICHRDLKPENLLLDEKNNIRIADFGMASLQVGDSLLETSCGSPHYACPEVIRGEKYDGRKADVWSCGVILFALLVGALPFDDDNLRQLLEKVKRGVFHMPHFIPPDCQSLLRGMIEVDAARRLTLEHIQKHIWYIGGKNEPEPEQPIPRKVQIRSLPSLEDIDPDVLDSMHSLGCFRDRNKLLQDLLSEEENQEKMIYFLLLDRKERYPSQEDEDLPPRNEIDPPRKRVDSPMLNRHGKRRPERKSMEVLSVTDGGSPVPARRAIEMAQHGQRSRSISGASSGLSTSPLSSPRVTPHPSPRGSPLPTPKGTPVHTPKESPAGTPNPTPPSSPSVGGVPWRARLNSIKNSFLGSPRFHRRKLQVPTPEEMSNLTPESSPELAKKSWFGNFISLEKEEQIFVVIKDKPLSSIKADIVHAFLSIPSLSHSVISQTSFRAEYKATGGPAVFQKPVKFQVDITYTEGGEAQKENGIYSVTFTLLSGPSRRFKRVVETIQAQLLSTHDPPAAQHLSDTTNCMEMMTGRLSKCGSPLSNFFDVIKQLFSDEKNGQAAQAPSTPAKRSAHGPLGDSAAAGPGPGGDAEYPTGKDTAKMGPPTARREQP

[10] = molecular target: MAP kinase-interacting serine/threonine-protein kinase 1 (Homo sapiens) (UniProt Q9BUB5); test: Inhibition of human MNK1 at 500 nM by HotSpot assay relative to control
MAP kinase-interacting serine/threonine-protein kinase 1 (Homo sapiens), sequence (Q9BUB5 whole entry, looked up): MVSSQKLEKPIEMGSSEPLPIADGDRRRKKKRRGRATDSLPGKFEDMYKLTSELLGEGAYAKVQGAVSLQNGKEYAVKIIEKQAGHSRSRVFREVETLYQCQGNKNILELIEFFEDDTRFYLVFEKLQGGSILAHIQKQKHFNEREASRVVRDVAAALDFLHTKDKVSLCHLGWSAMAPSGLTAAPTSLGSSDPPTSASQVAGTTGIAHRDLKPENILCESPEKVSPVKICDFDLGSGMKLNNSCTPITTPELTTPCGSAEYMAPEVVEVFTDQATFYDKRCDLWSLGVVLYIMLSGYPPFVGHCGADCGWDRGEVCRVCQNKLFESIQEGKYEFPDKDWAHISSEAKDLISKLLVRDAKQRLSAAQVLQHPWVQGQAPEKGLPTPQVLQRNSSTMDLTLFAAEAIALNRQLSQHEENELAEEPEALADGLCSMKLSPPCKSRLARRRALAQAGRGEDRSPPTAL

[11] = molecular target: RAC-alpha serine/threonine-protein kinase (Homo sapiens) (UniProt P31749); test: Inhibition of human AKT1 at 500 nM by HotSpot assay relative to control
RAC-alpha serine/threonine-protein kinase (Homo sapiens), sequence (P31749 whole entry): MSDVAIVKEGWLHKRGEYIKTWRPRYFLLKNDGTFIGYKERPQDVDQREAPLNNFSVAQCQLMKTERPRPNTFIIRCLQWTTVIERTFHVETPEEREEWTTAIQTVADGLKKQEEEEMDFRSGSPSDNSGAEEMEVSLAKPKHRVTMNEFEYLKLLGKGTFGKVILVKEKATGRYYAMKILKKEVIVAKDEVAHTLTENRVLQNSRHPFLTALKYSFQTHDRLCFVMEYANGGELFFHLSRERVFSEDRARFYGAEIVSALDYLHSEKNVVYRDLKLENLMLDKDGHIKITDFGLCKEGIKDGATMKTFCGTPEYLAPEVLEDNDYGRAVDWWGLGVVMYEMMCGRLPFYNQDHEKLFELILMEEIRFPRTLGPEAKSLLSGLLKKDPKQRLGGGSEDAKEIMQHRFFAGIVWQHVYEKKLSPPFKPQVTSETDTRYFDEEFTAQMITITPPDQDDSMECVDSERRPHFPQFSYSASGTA

[12] = molecular target: Tyrosine-protein kinase Lyn (Homo sapiens) (UniProt P07948); test: Inhibition of human LYN at 500 nM by HotSpot assay relative to control
Tyrosine-protein kinase Lyn (Homo sapiens), sequence (P07948 2-512 limits assumed): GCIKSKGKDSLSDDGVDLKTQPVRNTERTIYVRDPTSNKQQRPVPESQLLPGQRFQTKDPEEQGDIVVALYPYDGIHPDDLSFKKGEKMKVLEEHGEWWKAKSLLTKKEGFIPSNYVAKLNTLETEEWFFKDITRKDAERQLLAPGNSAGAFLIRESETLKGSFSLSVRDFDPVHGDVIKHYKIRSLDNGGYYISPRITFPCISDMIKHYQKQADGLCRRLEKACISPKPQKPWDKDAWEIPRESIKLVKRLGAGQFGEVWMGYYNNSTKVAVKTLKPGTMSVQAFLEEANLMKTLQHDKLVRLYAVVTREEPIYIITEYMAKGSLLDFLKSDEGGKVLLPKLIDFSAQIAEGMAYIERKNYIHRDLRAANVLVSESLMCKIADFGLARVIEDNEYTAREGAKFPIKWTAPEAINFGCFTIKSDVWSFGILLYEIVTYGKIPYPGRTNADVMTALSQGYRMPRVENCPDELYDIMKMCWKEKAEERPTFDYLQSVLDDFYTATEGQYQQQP

[13] = molecular target: Protein kinase C delta type (Homo sapiens) (UniProt Q05655); test: Inhibition of human PKCd at 500 nM by HotSpot assay relative to control
Protein kinase C delta type (Homo sapiens), sequence (Q05655 whole entry, looked up): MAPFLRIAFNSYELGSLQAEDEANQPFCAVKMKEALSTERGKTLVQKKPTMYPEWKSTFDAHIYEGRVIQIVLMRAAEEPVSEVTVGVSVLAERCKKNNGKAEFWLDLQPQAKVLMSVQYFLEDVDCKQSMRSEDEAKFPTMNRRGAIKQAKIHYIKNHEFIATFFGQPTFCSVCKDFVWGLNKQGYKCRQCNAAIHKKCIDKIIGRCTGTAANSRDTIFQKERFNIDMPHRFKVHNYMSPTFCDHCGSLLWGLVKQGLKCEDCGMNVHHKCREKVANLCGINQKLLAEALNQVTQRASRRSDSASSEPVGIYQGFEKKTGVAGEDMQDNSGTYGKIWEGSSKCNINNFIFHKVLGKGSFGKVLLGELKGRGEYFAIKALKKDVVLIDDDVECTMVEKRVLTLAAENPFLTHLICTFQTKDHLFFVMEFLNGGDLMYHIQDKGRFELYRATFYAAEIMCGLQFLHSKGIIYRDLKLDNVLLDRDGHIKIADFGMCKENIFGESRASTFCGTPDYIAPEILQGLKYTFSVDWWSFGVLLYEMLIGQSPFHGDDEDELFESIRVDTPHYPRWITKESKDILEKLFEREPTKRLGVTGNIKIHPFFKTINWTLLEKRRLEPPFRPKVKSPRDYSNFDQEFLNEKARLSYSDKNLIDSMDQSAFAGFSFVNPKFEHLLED

[14] = molecular target: Serine/threonine-protein kinase 24 (Homo sapiens) (UniProt Q9Y6E0); test: Inhibition of human STK24 at 500 nM by HotSpot assay relative to control
Serine/threonine-protein kinase 24 (Homo sapiens), sequence (Q9Y6E0 whole entry, looked up): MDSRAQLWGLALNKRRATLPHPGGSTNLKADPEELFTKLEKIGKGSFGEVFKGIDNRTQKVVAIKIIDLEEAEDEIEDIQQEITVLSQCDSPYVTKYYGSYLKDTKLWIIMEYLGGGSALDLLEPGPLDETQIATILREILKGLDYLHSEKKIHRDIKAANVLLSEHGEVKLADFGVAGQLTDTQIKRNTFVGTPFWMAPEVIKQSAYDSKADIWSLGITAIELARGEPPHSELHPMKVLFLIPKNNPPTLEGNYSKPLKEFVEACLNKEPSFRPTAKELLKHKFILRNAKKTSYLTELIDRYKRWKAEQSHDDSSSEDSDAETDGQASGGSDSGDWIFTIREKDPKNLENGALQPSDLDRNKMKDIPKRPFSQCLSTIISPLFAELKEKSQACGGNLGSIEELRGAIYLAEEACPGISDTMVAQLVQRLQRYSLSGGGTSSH

[15] = molecular target: T2, Tyrosine-protein kinase Tec (Homo sapiens) (UniProt P42680); test: Inhibition of human TEC at 500 nM by HotSpot assay relative to control
T2 sequence (whole entry): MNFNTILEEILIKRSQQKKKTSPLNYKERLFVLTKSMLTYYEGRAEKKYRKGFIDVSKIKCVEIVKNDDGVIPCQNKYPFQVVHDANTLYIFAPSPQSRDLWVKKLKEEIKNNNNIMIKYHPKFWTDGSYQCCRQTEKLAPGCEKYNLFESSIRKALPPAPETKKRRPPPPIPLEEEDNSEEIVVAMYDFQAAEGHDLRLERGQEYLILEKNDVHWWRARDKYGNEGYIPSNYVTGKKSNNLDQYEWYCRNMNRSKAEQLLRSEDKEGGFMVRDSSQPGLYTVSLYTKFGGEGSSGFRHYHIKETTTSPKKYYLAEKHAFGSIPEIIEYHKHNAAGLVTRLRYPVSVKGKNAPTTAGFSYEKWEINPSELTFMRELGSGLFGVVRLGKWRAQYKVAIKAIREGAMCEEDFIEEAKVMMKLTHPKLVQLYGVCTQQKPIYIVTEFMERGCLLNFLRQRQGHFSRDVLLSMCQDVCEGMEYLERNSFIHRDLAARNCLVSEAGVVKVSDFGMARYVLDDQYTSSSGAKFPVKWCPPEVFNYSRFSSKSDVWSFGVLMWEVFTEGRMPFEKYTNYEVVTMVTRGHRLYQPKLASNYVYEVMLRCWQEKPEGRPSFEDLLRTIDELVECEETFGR

Structure (SMILES)	inhibition [1]	inhibition [2]	inhibition [3]	inhibition [4]	inhibition [5]	inhibition [6]	inhibition [7]	inhibition [8]	inhibition [9]	inhibition [10]	inhibition [11]	inhibition [12]	inhibition [13]	inhibition [14]	inhibition [15]
Nc1n[nH]c2nnc(-c3c(-c4ccccc4)nn4ccccc34)cc12	13%	8.91%	0.97%	-4.88%	inactive	21.7%	1.14%	-0.45%	3.92%	1.48%	1.98%	5.07%	68.8%	25.4%	3.88%
Oc1n[nH]c2nnc(-c3c(-c4ccccc4)nn4ccccc34)cc12	11.9%	4.49%	3.04%	-2.59%	inactive	72.6%	1.9%	-2.58%	1.23%	0.89%	2.37%	2.29%	2.29%	-2.3%	-3%
